Experimental data from US20060217418A1, “Substituted alkyl amido piperidines” (priority 2001, published 2006).

Target: T1, rat MCH1 receptor (Rattus norvegicus, UniProt P97639)
T1 construct: operatively linked to DNA encoding the rat MCH1 receptor so as to permit expression thereof; expressed in transfected cells; host or cells: Human embryonic kidney Peak rapid 293 (Peakr293) cells, transient calcium phosphate transfection, membranes
Test: Radioligand binding assay at cloned rat MCH1 receptor ([3H]Compound A)
Conditions: cloned rat MCH1, Peakr293 cell membranes, 0.08 nM [3H]Compound A, 25° C., 90 minutes; read-out: Ki(MCH-1)

T1 sequence (P97639 whole entry): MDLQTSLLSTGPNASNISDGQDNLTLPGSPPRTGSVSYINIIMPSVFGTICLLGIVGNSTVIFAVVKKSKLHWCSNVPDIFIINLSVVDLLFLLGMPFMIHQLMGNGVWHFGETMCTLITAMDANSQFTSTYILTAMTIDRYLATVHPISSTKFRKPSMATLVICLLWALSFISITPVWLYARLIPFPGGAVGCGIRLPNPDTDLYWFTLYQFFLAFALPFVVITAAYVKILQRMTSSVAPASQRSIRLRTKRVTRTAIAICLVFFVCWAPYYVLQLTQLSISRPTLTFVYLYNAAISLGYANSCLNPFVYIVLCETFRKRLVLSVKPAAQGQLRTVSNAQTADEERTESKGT

Row | Ki | Compound
1 | 0.0052 µM | Cc1ccc(NC(=O)C(C)C)cc1C1CCN(CCCNC(=O)C2(c3ccc(F)cc3Cl)CCCC2)CC1 [Example 135, 1-(2-CHLORO-4-FLUOROPHENYL)-N-(3-{4-[5-(ISOBUTYRYLAMINO)-2-METHYL PHENYL]-1-PIPERIDINYL}PROPYL)CYCLOPENTANECARBOXAMIDE]
2 | 0.0332 µM | CC(C)OC(=O)Nc1cccc(C2CCN(CCCNC(=O)C(c3ccccc3)c3ccccc3)CC2)c1 [Example 144, Isopropyl 3-(1-{3-[(Diphenylacetyl)Amino]Propyl}-4-Piperidinyl) Phenylcarbamate]
3 | 0.0027 µM | CCC(=O)Nc1cccc(C2CCN(CCCNC(=O)C(c3ccccc3)c3c(C)cc(C)cc3C)CC2)c1 (stereo not drawn) [Example 14, N-[3-(1-{3-[(2-MESITYL-2-PHENYLACETYL)AMINO]PROPYL}-4-PIPERIDINYL)PHENYL] PROPANAMIDE]
4 | 1.04 µM | CCSC(C(=O)NCCCN1CCC(c2cccc(NC(=O)C(C)C)c2)CC1)(c1ccccc1)c1ccccc1 [Example 16, N-{3-[1-(3{[(ETHYLSULFANYL)(DIPHENYL)ACETYL]AMINO}PROPYL)-4-PIPERIDINYL] PHENYL}-2-METHYLPROPANAMIDE]
5 | 0.0324 µM | CC(C)C(=O)Nc1cccc(C2CCN(CCCNC(=O)C3(c4ccc(Cl)cc4)CCC3)CC2)n1 [Example 73, 1-(4-CHLOROPHENYL)-N-(3-{4-[6-(ISOBUTYRYLAMINO)-2-PYRIDINYL]-1-PIPERIDINYL} PROPYL)CYCLOBUTANECARBOXAMIDE]
6 | 0.0131 µM | COc1ccc(NC(=O)C(C)C)cc1C1CCN(CCCNC(=O)C(c2ccc(F)cc2)c2ccc(F)cc2)CC1 [Example 23]
7 | 0.0504 µM | CCCC(=O)Nc1cc(C2CCN(CCCNC(=O)C(C)(C)c3ccc(Cl)cc3)CC2)ccc1F [Example 110]
8 | 0.0084 µM | CCCCCC(C(=O)NCCCN1CCC(c2cccc(NC(=O)C(C)C)c2)CC1)(c1ccccc1)c1ccccc1 [Example 11]
9 | 0.005 µM | Cc1ccc(NC(=O)C(C)C)cc1C1CCN(CCCNC(=O)C(C)c2ccc(Cl)cc2)CC1 (stereo not drawn) [Example 100]
10 | 0.0187 µM | CCCC(=O)Nc1ccc(OC)c(C2CCN(CCCNC(=O)C(c3ccc(F)cc3)c3ccc(F)cc3)CC2)c1 [Example 26]
11 | 0.0334 µM | CN(C)C(=O)Nc1cccc(C2CCN(CCCNC(=O)C(c3ccc(F)cc3)c3ccc(F)cc3)CC2)c1 [Example 139]
12 | 0.019 µM | CCCC(=O)Nc1cccc(C2CCN(CCCNC(=O)C3(c4ccc(Cl)cc4)CCC3)CC2)c1 [Example 106, N-(3-{4-[3-(BUTYRYLAMINO)PHENYL]-1-PIPERIDINYL}PROPYL)-1-(4-CHLOROPHENYL) CYCLOBUTANECARBOXAMIDE]
13 | 0.124 µM | CC(C)C(=O)Nc1cccc(C2CCN(CCCNC(=O)C(F)(F)c3ccccc3)CC2)c1 [Example 125, N-{3-[1-(3{[DIFLUORO(PHENYL)ACETYL]AMINO}PROPYL)-4-PIPERIDINYL] PHENYL}2-METHYLPROPANAMIDE]
14 | 0.0053 µM | CC(C)C(=O)Nc1cccc(C2CCN(CCCNC(=O)C(C)(c3ccccc3)c3ccccc3)CC2)c1 [Example 30]
15 | 0.0118 µM | CC(C)C(=O)Nc1cc(C2CCN(CCCNC(=O)C(C)(c3ccccc3)c3ccccc3)CC2)ccc1F [Example 51]
16 | 0.0047 µM | CCCC(=O)Nc1cc(C2CCN(CCCNC(=O)C(c3ccc(C)cc3)c3ccc(C)cc3)CC2)ccc1F [Example 109]
17 | 0.0256 µM | CC(C)C(=O)Nc1cc(C2CCN(CCCNC(=O)C3(c4ccc(Cl)cc4)CC3)CC2)ccc1F [Example 47]
18 | 0.0048 µM | CCC(C(=O)NCCCN1CCC(c2cccc(NC(=O)C3CC3)c2)CC1)(c1ccccc1)c1ccccc1 [Example 122, N-[3-(1-{3-[(2,2-DIPHENYLBUTANOYL)AMINO]PROPYL}-4-PIPERIDINYL)PHENYL] CYCLOPROPANECARBOXAMIDE]

Row | Ki | Compound
19 | 0.0032 µM | Cc1ccc(NC(=O)C(C)C)cc1C1CCN(CCCNC(=O)C2(c3ccc(Cl)cc3)CCCC2)CC1 [Example 81]
20 | 0.0343 µM | CC(=O)Nc1cccc(C2CCN(CCCNC(=O)C3(c4ccc(Cl)cc4)CCC3)CC2)c1 [Example 74, N-(3-{4-[3-(ACETYLAMINO)PHENYL]-1-PIPERIDINYL}PROPYL)-1-(4-CHLOROPHENYL) CYCLOBUTANECARBOXAMIDE]
21 | 0.0716 µM | CC(C)C(=O)Nc1cccc(C2CCN(CCCNC(=O)C(Br)c3ccccc3)CC2)c1 (stereo not drawn) [Example 9, N-{3-[1-(3-{[BROMO(PHENYL)ACETYL]AMINO}PROPYL)-4-PIPERIDINYL] PHENYL}-2-METHYLPROPANAMIDE]
22 | 0.0069 µM | CC(C)(C(=O)NCCCN1CCC(c2cccc(NC(=O)C3CC3)c2)CC1)c1ccc(Cl)cc1 [Example 115]
23 | 0.0118 µM | CC(C)CC(=O)Nc1cccc(C2CCN(CCCNC(=O)C(c3ccccc3)c3ccccc3)CC2)c1 [Example 13]
24 | 0.0139 µM | O=C(Nc1cccc(C2CCN(CCCNC(=O)C3(c4ccc(Cl)cc4)CC3)CC2)c1)C1CC1 [Example 118]
25 | 0.0545 µM | CC(=O)Nc1cccc(C2CCN(CCCNC(=O)C3(c4ccc(Cl)cc4)CC3)CC2)c1 [Example 71, N-(3-{4-[3-(ACETYLAMINO)PHENYL]-1-PIPERIDINYL}PROPYL)-1-(4-CHLORO PHENYL) CYCLOPROPANECARBOXAMIDE]
26 | 0.0029 µM | CC(C)C(=O)Nc1ccc(F)c(C2CCN(CCCNC(=O)C3(c4ccc(Cl)cc4)CCCC3)CC2)c1 [Example 128]
27 | 0.023 µM | CC(C)C(=O)Nc1cccc(C2CCN(CCCNC(=O)C(C)(C)c3ccc(Cl)cc3)CC2)n1 [Example 88]
28 | 0.0905 µM | COc1ccc(NC(=O)C(C)C)cc1C1CCN(CCCNC(=O)C(c2ccccc2)c2ccccc2)CC1 [Example 20]
29 | 0.0036 µM | CCCC(=O)Nc1cccc(C2CCN(CCCNC(=O)C(c3ccccc3)(c3ccccc3)c3ccccc3)CC2)c1 [Example 97]
30 | 0.0029 µM | CCCC(=O)Nc1cccc(C2CCN(CCCNC(=O)C3(c4ccc(Cl)cc4)CCCCC3)CC2)c1 [Example 99, N-(3-{4-[3-(BUTYRYLAMINO)PHENYL]-1-PIPERIDINYL}PROPYL)-1-(4-CHLOROPHENYL) CYCLOHEXANECARBOXAMIDE]
31 | 0.0137 µM | CC(C)C(=O)Nc1cccc(C2CCN(CCCNC(=O)C3(c4ccc(Cl)cc4)CCC3)CC2)c1 [Example 43, 1-(4-CHLOROPHENYL)-N-(3-{4-[3-(ISOBUTYRYLAMINO)PHENYL]-1-PIPERIDINYL} PROPYL)CYCLOBUTANECARBOXAMIDE]
32 | 0.0028 µM | CC(C)C(=O)Nc1cc(C2CCN(CCCNC(=O)C(c3ccc(F)cc3)c3ccc(F)cc3)CC2)ccc1F [Example 48, N-{5-[1-(3-{[BIS(4-FLUOROPHENYL)ACETYL]AMINO}PROPYL)-4-PIPERIDINYL]-2-FLUORO PHENYL}2-METHYLPROPANAMIDE]
33 | 0.0126 µM | CC(C)C(=O)Nc1cccc(C2CCN(CCCNC(=O)C3(c4ccc(Cl)cc4)CCCC3)CC2)n1 [Example 84]
34 | 0.0146 µM | Cc1ccc(NC(=O)C(C)C)cc1C1CCN(CCCNC(=O)[C@H](C)c2ccccc2)CC1 [Example 164, 2-methyl-N-{4-methyl-3-[1-(3-{[(2R)-2-phenylpropanoyl]amino}propyl)-4-piperidinyl]phenyl} propanamide]
35 | 0.0247 µM | Cc1ccc(NC(=O)C(C)C)cc1C1CCN(CCCNC(=O)Cc2ccc(F)cc2)CC1 [Example 175, N-{3-[1-(3-{[(4-fluorophenyl)acetyl]amino}propyl)-4-piperidinyl]-4-methylphenyl}-2-methyl propanamide]
36 | 0.0043 µM | CC(C)C(=O)Nc1cccc(C2CCN(CCCNC(=O)C(c3ccccc3)(c3ccccc3)c3ccccc3)CC2)c1 [Example 59]
